The numbers were not newly measured in patent publication US5053431A, “Derivatives of chrysophanol as topoisomerase II inhibitors” (Sloan-Kettering Institute For Cancer Research, priority 1990, dated 1991), which cites them from elsewhere.

Conditions in all cases: literature; cited from earlier work
For one series, the system named is cancer.
For the next series, the system named is peroxidases.
Series [1] has as its system proteins, polyadenylate, RNA, DNA.

For `Cc1c2cc[n+](C)cc2c(C)c2c1[nH]c1ccc(O)cc12` [9-OH-NME, 2-N-Methyl-9-hydroxyellipticinium], the anticancer activity entry in the series with cancer is given as “one of the most active drugs among the ellipticine analogues”. For the same molecule, the oxidation by peroxidases entry in the series on peroxidases was “easily oxidized by peroxidases”.

As to `Cc1c2c(c(C)c3c[n+](C)ccc13)C1=CC(=O)C=CC1=N2` [9-oxo-NME, 9-oxo-2-methylellipticinium], the alkylation of macromolecules result in series [1] is “easily alkylated by 9-oxo-NME”.
